By pKa is commonly meant the negative logarithm of the acid dissociation constant.

This data set can be described thus: physchem.
With `O=C1NC2(CCc3ccccc32)C(=O)N1CCCN1CCc2ccccc2C1` (configuration not stated), the pKa turned out to be 10.9.

On to `Cc1cn2c3c(=O)n(C)c(=O)n(C)c3nc2n1CCCN1CCc2ccccc2C1`, for which the pKa is 8.66.

In turn, `Cn1c(=O)c2c(nc3n(CCCN4CCN(c5cccc(Cl)c5)CC4)c(-c4ccccc4)cn23)n(C)c1=O` yielded a pKa of 10.6.

For `COc1ccccc1N1CCN(CCCN2C(=O)NC3(CCCc4ccccc43)C2=O)CC1` (configuration not stated), the pKa stood at 10.3.

Take `Cc1cn2c3c(=O)n(C)c(=O)n(C)c3nc2n1CCCN1CCN(c2cccc(Cl)c2)CC1`: the pKa was determined as 8.12.

In the case of `COc1ccccc1N1CCN(CCCN2C(=O)NC3(CCc4ccccc43)C2=O)CC1` (configuration not stated), the pKa amounted to 9.6.

In turn, `Cn1c(=O)c2c(nc3n(CCCN4CCN(c5ccccc5)CC4)ccn23)n(C)c1=O` had a pKa of 8.09.

`O=C1NC2(CCCc3ccccc32)C(=O)N1CCCN1CCN(c2cccc(Cl)c2)CC1` (configuration not stated) had a pKa of 10.8.

Compound `O=C1NC2(CCc3ccccc32)C(=O)N1CCCN1CCN(c2cccc(Cl)c2)CC1` (configuration not stated) showed a pKa of 10.3.

In the case of `Cc1cn2c3c(=O)n(C)c(=O)n(C)c3nc2n1CCCN1CCN(c2ccccc2)CC1`, the pKa was determined as 7.55.

On to `Cn1c(=O)c2c(nc3n(CCCN4CCN(c5cccc(Cl)c5)CC4)ccn23)n(C)c1=O`, for which the pKa amounted to 8.35.

As for `Cn1c(=O)c2c(nc3n(CCCN4CCN(c5ccccc5)CC4)c(-c4ccccc4)cn23)n(C)c1=O`, the pKa turned out to be 8.79.

The compound `O=C1NC2(CCc3ccccc32)C(=O)N1CCCN1CCN(c2ccccc2)CC1` (configuration not stated) came in with a pKa of 10.5.

`Cc1cn2c3c(=O)n(C)c(=O)n(C)c3nc2n1CCCN1CCN(c2cccc(Cl)c2Cl)CC1`: the pKa was found to be 7.61.

In the case of `O=C1NC2(CCc3ccccc32)C(=O)N1CCCN1CCN(c2cccc(C(F)(F)F)c2)CC1` (configuration not stated), the pKa amounted to 9.96.

Compound `O=C1NC2(CCCc3ccccc32)C(=O)N1CCCN1CCc2ccccc2C1` (configuration not stated) came in with a pKa of 10.9.

The compound `COc1ccccc1N1CCN(CCCn2c(-c3ccccc3)cn3c4c(=O)n(C)c(=O)n(C)c4nc23)CC1` came in with a pKa of 8.44.

`O=C1NC2(CCCc3ccccc32)C(=O)N1CCCN1CCN(c2ccccc2)CC1` (configuration not stated) yielded a pKa of 10.6.

In turn, `COc1ccccc1N1CCN(CCCn2ccn3c4c(=O)n(C)c(=O)n(C)c4nc23)CC1` yielded a pKa of 8.19.

`COc1ccccc1N1CCN(CCCn2c(C)cn3c4c(=O)n(C)c(=O)n(C)c4nc23)CC1` returned a pKa of 7.61.

For the compound `O=C1NC2(CCCc3ccccc32)C(=O)N1CCCN1CCN(c2cccc(C(F)(F)F)c2)CC1` (configuration not stated), the pKa was found to be 11.1.

Consider `Cn1c(=O)c2c(nc3n(CCCN4CCc5ccccc5C4)c(-c4ccccc4)cn23)n(C)c1=O`, for which the pKa amounted to 10.4.

(Values after ChEMBL document CHEMBL3046911, “Serotonin transporter activity of imidazolidine-2,4-dione and imidazo[2,1-f]purine-2,4-dione derivatives in aspect of their acid-base properties” (Med Chem Res, 2012).)
